According to ChEMBL document CHEMBL3507680, “University of Dundee, Gates Library screen for HepG2 cell viability”:

Assay: Human HepG2 cell viability assay in 384 well format
Type: toxicity, cell-based
Parameters: dose 125 nL, time 70.5 hour; concentration not given beside the values
Details: HepG2 cells, read-out: Inhibition

Row | SMILES | cytotoxicity at 70.5 h
1 | Cc1ncsc1CNC(=O)NCC1(c2ccc3c(c2)OCO3)CC1 | 19%
2 | CC(C)NC(=O)N1CCC2(CCCO2)C1 (stereo not drawn) | 14.2%
3 | O=C(c1ccc(OCC2CC2)nc1)N1CCCC(n2ccnc2)C1 (stereo not drawn) | -14.6%
4 | Cc1cc(=O)n(CC(=O)Nc2cccc(Cl)c2)nc1C | 21.6%
5 | O=C1CCC(=O)N1CCN1CCOC(c2ccsc2)C1 (stereo not drawn) | 3.03%
6 | O=C(NCc1nnc2n1CCCCC2)N(CC1CCOC1)C1CC1 (stereo not drawn) | 17.7%
7 | CCN(CCn1c(=O)oc2ccccc21)CC1CCOCC1 | -2.32%
8 | O=C(CCc1cc2n(n1)CCCN(C(=O)[C@H]1CCCO1)C2)NC1CC1 | 3.28%
9 | CC(C)c1nnc2n1CCN(Cc1csc(CC(=O)N(C)C)n1)C2 | 49.9%
10 | c1cnn(CCNCc2cnc(N3CCOCC3)nc2)c1 | 41.2%
11 | Cc1cnc(Cn2cc(-c3cccc(C(C)N(C)C)c3)nn2)cn1 (stereo not drawn) | -4.71%
12 | CC(C)N(C(=O)CN(C)C1CCc2ccccc21)C(C)C (stereo not drawn) | -0.805%
13 | O=C(Nc1nnc(C2CC2)s1)NC1CCOc2ccccc21 (stereo not drawn) | 22.9%
14 | CCN1CCC2(CCC1=O)CN(c1nccc(N)n1)CCN2C (stereo not drawn) | -4.72%
15 | CNC(=O)CCc1cc(C)nc(C2CCN(CC(=O)N(C)C)CC2)c1 | -6.28%
16 | CN1CCN(CC2(O)CCCN(S(=O)(=O)c3cn[nH]c3)CC2)CC1 (stereo not drawn) | -3.77%
17 | CC(=O)N1CCCC1c1cccc(C)c1C (stereo not drawn) | -4.04%
18 | CC(NC(=O)NCCCO)c1ccc2c(c1)NC(=O)CO2 (stereo not drawn) | -12%
19 | CN(C)CCNC(=O)[C@H]1C[C@@H]2CN(C(=O)NCc3ccccc3)C[C@H]1O2 | -14.9%
20 | O=C(c1cccnc1)N1CCn2nnc(COc3cccnc3)c2C1 | -3.89%
21 | CC(C)N(C)Cc1cn2c(n1)CN(C(=O)Cc1ccsc1)CC2 | 0.0105%
22 | Cc1cc(Nc2nc(C)cc(C)n2)cc(C2CCCN2)n1 (stereo not drawn) | -7.57%
23 | CN(Cc1ccsc1)C(=O)c1cccc(S(=O)(=O)NC(C)(C)C)c1 | -2.95%

Row | SMILES | cytotoxicity at 70.5 h
24 | CCc1ccc(C2CC(=O)Nc3cc(NS(C)(=O)=O)ccc32)o1 (stereo not drawn) | 31.4%
25 | Cc1ccc(-c2nnc(CN3CCc4cnc(C)nc4C3)o2)cc1 | 3.5%
26 | CCC1CN(C(=O)c2cnc(-c3cnn(C)c3)s2)CCO1 (stereo not drawn) | -6.34%
27 | CN(C)CCn1c(=O)oc2ccc(NC(=O)CSc3ccccc3)cc21 | 6.5%
28 | CCn1cc2c(n1)C(COC)CN(C(=O)COc1ccccc1C)C2 (stereo not drawn) | -7.2%
29 | Cc1cc(C(=O)N2CCc3[nH]nc(-c4ccc5c(c4)OCO5)c3C2)no1 | 1.25%
30 | O=C1CCC(CCC(=O)N2CCC2c2cccs2)=NN1 (stereo not drawn) | -13.3%
31 | CCS(=O)(=O)N1CCC2(CC1)CC[C@@]1(C(=O)N(C)C)CN(C)C[C@@H]21 | -15.2%
32 | CC(C)n1cc(CN2CCCN(C(=O)C(C)n3cncn3)CC2)cn1 (stereo not drawn) | 3.68%
33 | c1cc(C2CCN(Cc3nc(C4CC4)no3)CC2)[nH]n1 | -6.11%
34 | Cc1nnc(CN(C)C2CCCN(Cc3noc(C4CC4)n3)C2)o1 (stereo not drawn) | -8.76%
35 | COc1ccc(CNc2ncc(-c3cc(C)no3)c(C(C)C)n2)cc1 | -4.08%
36 | O=C(CN1CCNCC1)N1CC[C@@H](c2ccc3ccccc3c2)[C@H](O)C1 | -6.87%
37 | CN(Cc1nnc(C2CC2)n1C)C1CCN(Cc2ccccc2F)C1 (stereo not drawn) | -2.35%
38 | CCc1noc(C(C)N2CCN(c3ncnc4sccc34)CC2)n1 (stereo not drawn) | 1.35%
39 | Cc1cc(-n2nnc(C(=O)O)c2-c2ccncc2)ccc1F | -20%
40 | Cc1noc(C)c1CN1C[C@H](OCC2CC2)[C@H]2OCCC[C@H]21 | -9.93%
41 | CNC(=O)CN(C)S(=O)(=O)c1c(Br)cc2[nH]c(=O)oc2c1Cl | -3.9%
42 | Cc1nc(C)c(C(=O)NCc2nc3cccc(C)c3n2C)o1 | -0.751%
43 | O=C1COc2cc(C(=O)NCc3ccc(Cl)s3)ccc2N1 | -2.5%
44 | Fc1cccc(CN2CCC(c3noc(-c4ccccn4)n3)CC2)c1F | -0.639%
45 | c1cnn(CC2CN(CCCOc3ccc4c(c3)OCO4)CCO2)c1 (stereo not drawn) | -8.43%
46 | O=C1CC[C@@H](CN(Cc2ccncc2)Cc2nc(-c3cccs3)no2)N1 | -3.48%

Row | SMILES | cytotoxicity at 70.5 h
47 | COc1cc(-c2cc(NC3CCCC3)nc3[nH]ccc23)nc(N)n1 | -11.3%
48 | COc1ccc(C[C@@H]2CC[C@H](CN(C)C3CCN(C)CC3)O2)cc1 | -5.62%
49 | COCCN1CC(O)CN(C(=O)c2ccc(SC)cc2)CC1=O (stereo not drawn) | -4.29%
50 | CC(NC(=O)CCCOc1cccc(F)c1)c1ccncc1 (stereo not drawn) | -4.8%
51 | Cc1cccc(C(=O)N2C[C@@H]3OCCN(c4ncccn4)[C@@H]3C2)n1 | 2.67%
52 | CN(C)S(=O)(=O)N1CCCC1c1cccc(-n2ccnc2)n1 (stereo not drawn) | -4.96%
53 | Cc1nnc(C2CCN(c3ncccn3)CC2)o1 | -15%
54 | CC(C)C(=O)Nc1ccc2c(c1)ncn2CC(=O)NCCN(C)C | -7%
55 | Cc1ccc(C(=O)NCc2ccc(N(C)C)cc2)cn1 | -10.4%
56 | CCn1cc(S(=O)(=O)Nc2cccnc2-n2cccn2)nc1C | -2.93%
57 | CCN(C)C(=O)C1(c2ccc(F)cc2F)CCC1 | 4.95%
58 | Cc1cc(NCc2cn(C)nc2-c2cccnc2)n(C)n1 | -2.96%
59 | Cc1oc(C)c(C(=O)NCc2ccccn2)c1C | -6.3%
60 | COCCN1C(=O)CO[C@H]2CN(Cc3c[nH]nc3-c3ccccc3)C[C@@H]21 | -9.3%
61 | Cc1cncc(NC(=O)c2ccc(CN3CCCC(C(N)=O)C3)cc2)c1 (stereo not drawn) | -0.673%
62 | Oc1nc(N2CCOCC2)nc2c1CCN(Cc1cccc(F)c1)CC2 | -5.57%
63 | Cc1nn(C)cc1C(=O)N1CCCC(n2nnc3cc(F)ccc32)C1 (stereo not drawn) | 11.8%
64 | COC[C@@]12CC[C@@H](N3CCOCC3)C[C@H]1CCN(c1ncccc1F)C2 | -6.47%
65 | O=C(NCc1ccco1)[C@H]1C[C@@H]2CCN(c3ccncn3)C[C@@H]2O1 | -5.88%
66 | COc1ccc(NC(=O)CCc2c(C)nc3cc(O)nn3c2C)cn1 | -2.2%
67 | CCn1c(CN2CCOC(Cn3cncn3)C2)nc2cc(F)ccc21 (stereo not drawn) | 0.647%
68 | CC(C)c1nc(C2CCCN(C(=O)CN(C)S(C)(=O)=O)C2)no1 (stereo not drawn) | 5.74%
69 | Cc1nn(C)c2c(=O)n(CC(=O)NCCN3CCCCCC3)ccc12 | -4.19%

Row | SMILES | cytotoxicity at 70.5 h
70 | CNC(=O)COc1nc(C(C)(C)C)no1 | 3.09%
71 | Cc1cnc(-c2nc(O)c3c(n2)CN(C(=O)C2CCCC2)CC3)cn1 | -1.77%
72 | Cn1nc(Cn2cccn2)c2c1CN(C1CCOC1)C2 (stereo not drawn) | -6.25%
73 | O=C(c1cnccn1)N1CCc2onc(CN3CCCC3)c2C1 | 1.69%
74 | Cc1c(NCc2ccc(C#N)cc2)cccc1S(=O)(=O)NC1CC1 | 1.12%
75 | CCc1nnc2n1CCN(C(=O)c1cn(-c3ccccc3)nn1)C2 | 3.13%
76 | O=S(=O)(c1ccc(Cl)cc1)N1CCOC[C@H](Oc2cnccn2)C1 | 0.0647%
77 | Cc1cccc(C(=O)N2C[C@@H]3[C@H](CC(=O)NC(C)C)[C@@H]3C2)n1 | -9.84%
78 | CC(=O)N1CCOC2(CCCN(Cc3ccc(Cl)c(C(F)(F)F)c3)C2)C1 (stereo not drawn) | -1.77%
79 | CCOC(=O)c1ccc(NC(=O)c2c(O)nc3c(c2O)CCCC3)cc1 | -10.8%
80 | NC(=O)c1cc2c(nc1-c1ccoc1)CCC2 | -6.2%
81 | Cc1ncsc1CN1C[C@@H]2COC[C@]2(CNC(=O)c2ccccc2)C1 | -7.33%
82 | Cc1cc(C(F)(F)F)nc(CCNC(C)Cn2ccnc2)n1 (stereo not drawn) | -23.4%
83 | Cc1nnc(NC(=O)NCc2cc(F)cc(F)c2)s1 | -14.2%
84 | c1ccc(CCN2CCCC2c2ccnc(Nc3cnccn3)n2)cc1 (stereo not drawn) | -3.41%
85 | Cc1ccnc(NCCCN2CCc3ccccc32)n1 | -2.9%
86 | O=C1CC(NS(=O)(=O)c2ccc(F)c(Cl)c2)CN1 (stereo not drawn) | 0.519%
87 | Cc1nn(C)c2c(NCc3ccccn3)ncnc12 | -2.17%
88 | Cc1cc(C)n(CC(C)NCc2nc(-c3cccnc3)no2)n1 (stereo not drawn) | -6.9%
89 | COc1ccc(-c2nc(CSC3CCCCNC3=O)co2)cc1 (stereo not drawn) | -3.03%
90 | CCc1nnc(CN(C)Cc2cccc(C(=O)Nc3ccnn3C)c2)o1 | 1.53%
91 | NC(=O)CCn1cc(CNCCCc2ccncc2)c2ccccc21 | -3.77%
92 | O=C(Cn1cccn1)NCC1(c2ccccc2)CC1 | 24.2%

Row | SMILES | cytotoxicity at 70.5 h
93 | CC1CCN(S(=O)(=O)NCc2ccccc2Cn2cncn2)CC1 | -2.92%
94 | COc1ccc(-c2cc(C3CCNCC3)ccn2)cc1 | -4.77%
95 | CC(CO)CN(Cc1ccccc1)Cc1cnc2ccccc2n1 (stereo not drawn) | -8.82%
96 | NC(=O)C1=NC2=NS(=O)(=O)c3ccccc3N2N1Cc1ccc(Cl)cc1 | 1.74%
97 | CN(CC(F)(F)F)C(=O)CN1CCC(c2cc3ccccc3[nH]2)CC1 | -25%
98 | CCc1nc(C)c(C(=O)NCCNC(=O)c2cccs2)s1 | 15.7%
99 | CCC(CO)NC(=O)c1cc(COc2ccc(OC)cc2Cl)[nH]n1 (stereo not drawn) | -10.5%
100 | OCCn1nccc1C1CCN(CCCOc2ccc(F)cc2)CC1 | -1.62%
101 | O=C(O)c1cc(-c2cc[nH]n2)cc(S(=O)(=O)N2CCCCCC2)c1 | -4.16%
102 | Cc1ccc(C(=O)N2CCc3nc4c(C)csc4c(=O)n3CC2)cn1 | -4.08%
103 | c1coc(CN2Cc3ccnn3CC(COCC3CC3)C2)c1 (stereo not drawn) | -6.27%
104 | O=C(NCc1ccc(-n2cncn2)nc1)c1ccc2c(c1)CCO2 | -10.1%
105 | Cc1nccn1CCCNc1ccc(Cl)c(C#N)n1 | -24.8%
106 | CC(=O)N[C@H]1CN(S(=O)(=O)N(C)Cc2ccccc2)C[C@@H]1C1CC1 | -2.36%
107 | CCCS(=O)(=O)NCC(C)c1ccc(F)c(F)c1 (stereo not drawn) | 6.33%
108 | O=C1CCCN1CCc1noc(-c2ccsc2)n1 | -7.91%
109 | O=C(N1CCCC(n2cncn2)C1)C1(c2cccc(F)c2)CCC1 (stereo not drawn) | -8.35%
110 | Cn1nc(C(=O)N2CCOCC2)c2c1CN(CC1CC1)C2 | -3.11%
111 | Cc1nn(C)c(C)c1CCC(=O)NCc1csc(N2CCCC2)n1 | 2.01%
112 | CCc1ncc(CN2CCOC(Cc3cccc(F)c3)C2)cn1 (stereo not drawn) | -9.07%
113 | CC(C)Cc1cc(NC(=O)c2ccccc2)n(C)n1 | -15.4%
